Like-named read-outs stand apart in the source and are kept apart here.
Experiments:
[1] = literature value; cited from earlier work
[2] = Rat brain cassette exposure study; format: in vivo, Sprague Dawley rat; settings: intravenous cassette dosing, samples at 2 min and 30 min
Description: The in vivo pharmacokinetic characteristics of the example compounds of the invention were compared directly with the known beta-amyloid specific ligand AZD2184 (Johnson, A. E., et al, Journal of Neurochemistry (2009), Vol. 108, pages 1177-1186). Rat brain exposure to three compounds of the invention and AZD2184 was measured by intravenous cassette dosing three test compound: Example Compound 43, Example Compound 47 and Example Compound 48; and AZD2184 (Novandi Chemistry) (concentration of 0.25 μmol/mL each) using the procedure previously described in Johnson, A. E., et al, Journal of Neurochemistry (2009), Vol. 108, pages 1177-1186. 6 male Sprague Dawley rat were used in the experiments, three rats per time point (2 min and 30 min).

[3] = cited from earlier work

Structure (SMILES)	t1/2 reported in Table 3 of Johnson, A. E., et al [1]	calculated half-life (t1/2) in rat brain tissue [2]	radiochemical purity after exposure to fluorescent light ([3]; at 1 min after exposure)	radiochemical purity after exposure to fluorescent light ([3]; from 10 to 60 min)
CNc1ccc(-c2nc3ccc(O)cc3s2)cn1 [AZD2184, reference compound]	6.8 min	6.65 min		
CNc1ccc(/C=C/C=C/c2nc3ccc(O)cc3s2)cn1 [^11C-PBB3]			77%	approximately 50%

Source: patent US12636385B2, “Selective ligands for tau aggregates” (Sentonix, Inc., priority 2018, dated 2026)
